# In ChEMBL document CHEMBL1128960, “Phosphonic acid and phosphinic acid tripeptides as inhibitors of glutathionylspermidine synthetase” (Bioorg Med Chem Lett, 1996):
# pKi: −log10 of the molar value.
# Molecular target: T1, Glutathionylspermidine synthase (Crithidia fasciculata, UniProt P90518)
# T1 sequence (P90518 whole entry): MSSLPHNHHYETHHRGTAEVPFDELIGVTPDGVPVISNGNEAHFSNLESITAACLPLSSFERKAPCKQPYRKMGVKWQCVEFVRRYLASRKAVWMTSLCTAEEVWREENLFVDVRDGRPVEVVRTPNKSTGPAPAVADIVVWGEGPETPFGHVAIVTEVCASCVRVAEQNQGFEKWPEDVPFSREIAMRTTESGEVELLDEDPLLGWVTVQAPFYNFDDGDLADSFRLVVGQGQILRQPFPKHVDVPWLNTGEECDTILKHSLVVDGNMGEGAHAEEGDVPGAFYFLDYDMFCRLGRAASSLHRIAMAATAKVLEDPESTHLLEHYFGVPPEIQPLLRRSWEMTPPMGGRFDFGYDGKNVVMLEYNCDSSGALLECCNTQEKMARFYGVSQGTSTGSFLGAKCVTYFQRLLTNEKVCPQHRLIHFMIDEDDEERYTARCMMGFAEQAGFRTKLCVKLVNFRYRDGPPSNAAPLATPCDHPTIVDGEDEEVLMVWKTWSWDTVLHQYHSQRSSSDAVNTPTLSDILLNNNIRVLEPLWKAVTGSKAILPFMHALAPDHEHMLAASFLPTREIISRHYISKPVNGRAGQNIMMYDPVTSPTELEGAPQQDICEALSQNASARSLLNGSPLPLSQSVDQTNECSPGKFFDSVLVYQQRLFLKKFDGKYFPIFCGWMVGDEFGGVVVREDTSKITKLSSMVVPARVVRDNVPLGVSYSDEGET
# Assay: Compound was tested for linear non-competitive inhibitory activity against glutathionylspermidine synthetase.
row,pKi,Compound
1,4.22,CC(C)C[C@H](NC(=O)[C@@H](N)CCC(=O)O)C(=O)NCP(=O)(O)O
2,3.54,CC(C)[C@H](NC(=O)[C@@H](N)CCC(=O)O)C(=O)NCP(=O)(O)O

# Molecular target: T2, Glutathionylspermidine synthase (Crithidia fasciculata) (UniProt P90518)
# T2 sequence (whole entry): T1 sequence (P90518 whole entry)
# Assay: Compound was tested for inhibitory activity against glutathionyl spermidine synthetase in the presence of 5 mM glutathione and spermidine.
row,inhibition [%],Compound
1,15,COC(=O)CCP(=O)(O)C(C)NC(=O)[C@@H](NC(=O)[C@@H](N)CCC(=O)O)C(C)C (some centres undefined)

# Molecular target: T2, Glutathionylspermidine synthase (Crithidia fasciculata)
# Assay: Compound was tested for inhibitory activity against glutathionylspermidine synthetase in the presence of 5 mM glutathione and spermidine; Not inhibition
row,inhibition,Compound
1,No inhibition,CC(C)[C@H](NC(=O)[C@@H](N)CCC(=O)O)C(=O)NCCP(=O)(O)O
2,No inhibition,CC(C)[C@H](NC(=O)[C@@H](N)CCC(=O)O)C(=O)NCC(=O)CP(=O)(O)O
3,No inhibition,CC(C)[C@H](NC(=O)[C@@H](N)CCC(=O)O)C(=O)NCCCP(=O)(O)O
4,No inhibition,CC(C)C[C@H](NC(=O)[C@@H](N)CCC(=O)O)C(=O)Nc1ccc(CP(=O)(O)O)cc1
5,No inhibition,CC(C)[C@H](NC(=O)[C@@H](N)CCC(=O)O)C(=O)NCC(O)CP(=O)(O)O (some centres undefined)

# Molecular target: T2, Glutathionylspermidine synthase (Crithidia fasciculata)
# Assay: Compound was tested for inhibitory activity against glutathionylspermidine synthetase in the presence of 5 mM glutathione and spermidine.
row,inhibition [%],Compound
1,24,CC(C)C[C@H](NC(=O)[C@@H](N)CCC(=O)O)C(=O)NCCCP(=O)(O)O
2,14,CC(C)[C@H](NC(=O)[C@@H](N)CCC(=O)O)C(=O)NC(C)P(C)(=O)O (some centres undefined)
3,10,CC(C)[C@H](NC(=O)[C@@H](N)CCC(=O)O)C(=O)NCC(N)CP(=O)(O)O (some centres undefined)
4,62,CC(C)C[C@H](NC(=O)[C@@H](N)CCC(=O)O)C(=O)NCC(=O)CP(=O)(O)O
5,11,CC(C)[C@H](NC(=O)[C@@H](N)CCC(=O)O)C(=O)NCP(=O)(O)CCC(N)=O
6,86,CC(C)C[C@H](NC(=O)[C@@H](N)CCC(=O)O)C(=O)NCP(=O)(O)O
7,71,COC(=O)CCP(=O)(O)CNC(=O)[C@@H](NC(=O)[C@@H](N)CCC(=O)O)C(C)C
8,78,CC(C)[C@H](NC(=O)[C@@H](N)CCC(=O)O)C(=O)NCP(=O)(O)O
9,50,CC(C)[C@H](NC(=O)[C@@H](N)CCC(=O)O)C(=O)NC[PH](=O)O
10,26,CC(C)[C@H](NC(=O)[C@@H](N)CCC(=O)O)C(=O)NCP(C)(=O)O

row,Compound,inhibition [%]
1,CC(C)C[C@H](NC(=O)[C@@H](N)CCC(=O)O)C(=O)NCP(=O)(Oc1ccccc1)Oc1ccccc1,76
